Values belong to the compound of their own block, whether it stands above or below them.
Columns and labels:
Assay type in all cases: binding
OiMacroD [1] = target: T1, OiMacroD (Oceanobacillus iheyensis, UniProt Q8EP31, G37V); test: X-ray crystal structure, […] Å; settings: crystal soaked with 20 mM ADPr; active site
T1 construct: gene OB2288

OiMacroD [2] = target: T2, OiMacroD (Oceanobacillus iheyensis, UniProt Q8EP31); test: thermal shift, SYPRO Orange; settings: 50 mM sodium phosphate pH 7.0, 1 mM ligand; without ligand Tm = 41.7 ± 0.2 °C
T2 construct: gene OB2288

OiMacroD [3] = target: T2, OiMacroD; test: X-ray crystal structure, […] Å; settings: crystal soaked with 20 mM ADPr; active site
OiMacroD [4] = target: T2, OiMacroD; test: thermal shift, SYPRO Orange; settings: 50 mM sodium phosphate pH 7.0, 1 mM ligand; without ligand Tm = 41.7 ± 0.2 °C; remark: listed apart in the source
OiMacroD [5] = target: T2, OiMacroD; test: X-ray crystal structure, […] Å; settings: crystal soaked with 20 mM ADP; active site, two alternative conformations
OiMacroD [6] = target: T2, OiMacroD; test: thermal shift, SYPRO Orange; settings: 50 mM sodium phosphate pH 7.0, 1 mM ligand; without ligand Tm = 41.7 ± 0.2 °C; remark: listed apart in the source

T2 sequence (Q8EP31 entry or part of it): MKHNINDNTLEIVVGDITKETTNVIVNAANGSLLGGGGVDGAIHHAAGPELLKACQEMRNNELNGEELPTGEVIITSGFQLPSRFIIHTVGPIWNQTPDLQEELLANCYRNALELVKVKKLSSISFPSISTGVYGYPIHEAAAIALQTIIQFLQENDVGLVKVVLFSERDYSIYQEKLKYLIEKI
T1 sequence (Q8EP31 entry or part of it G37V): as the sequence (Q8EP31 entry or part of it) above, with G37V counted along it

X-ray crystal structure, 1.35 Å (OiMacroD [1]): OiMacroD G37V (ADPr) (5LAU)
Tm with 1 mM ADPr (OiMacroD [2]): 47.8 ± 0.1 °C
X-ray crystal structure, 1.77 Å (OiMacroD [3]): OiMacroD-ADPr (5L9K)
Structure (SMILES): Nc1ncnc2c1ncn2[C@@H]1O[C@H](COP(=O)(O)OP(=O)(O)OC[C@H]2OC(O)[C@H](O)[C@@H]2O)[C@@H](O)[C@H]1O (stereo partly drawn) [ADP-ribose]

Tm with 1 mM ADP (OiMacroD [4]): 44.0 ± 0.2 °C
X-ray crystal structure, 1.75 Å (OiMacroD [5]): OiMacroD-ADP (5L9Q)
Structure (SMILES): Nc1ncnc2c1ncn2[C@@H]1O[C@H](COP(=O)(O)OP(=O)(O)O)[C@@H](O)[C@H]1O [ADP]

Tm with 1 mM AMP (OiMacroD [6]): 43.3 ± 0.1 °C
Structure (SMILES): Nc1ncnc2c1ncn2[C@@H]1O[C@H](COP(=O)(O)O)[C@@H](O)[C@H]1O [AMP]

Source: PMC5413906, “Structural and functional analysis of Oceanobacillus iheyensis macrodomain reveals a network of waters involved in substrate binding and catalysis” (Open Biology, 2017)
